Measurements taken from US10517889B2, “Modulators of SMAD7 expression” (Ionis Pharmaceuticals, Inc., priority 2017, dated 2019).
Strand notation (5' to 3'): a small letter for the sugar, then the base; units joined by * are phosphorothioate-linked, units joined directly phosphodiester-linked; [ ] holds rarer units or linkages, { } end groups; capitals alone tell only the bases. k = constrained ethyl (cEt); [5mC] = 5-methylcytosine; d = 2'-deoxy (DNA)

test system: human SMAD7 mRNA; test: Antisense inhibition of human SMAD7 mRNA expression in Hep3B cells by 3-10-3 cEt gapmers, 10,000 nM, electroporation (Example 2); assay type: cell-based; settings: Hep3B cells, 10,000 nM antisense oligonucleotide, electroporation, approximately 24 hours, RT-PCR primer probe set RTS5062, relative to untreated control cells
Outline: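 Hep3B, 20,000 cells/well; electroporation, 10,000 nM ASO; ~24 h. Readout: SMAD7 mRNA by qRT-PCR (RTS5062), RIBOGREEN-normalised; % inhibition vs untreated.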

Substance	% Inhibition
799954 (antisense k[5mC]*kA*kG*dA*dA*dA*dA*dT*dG*d[5mC]*d[5mC]*d[5mC]*dA*k[5mC]*k[5mC]*kA) [compound 799954]	42%
800092 (antisense kA*kT*k[5mC]*d[5mC]*dT*dG*dA*dT*dG*dA*dG*dA*dA*kA*kA*k[5mC]) [compound 800092]	0%
799855 (kA*kG*k[5mC]*d[5mC]*dA*dA*dG*dT*dG*dT*d[5mC]*d[5mC]*dA*kT*k[5mC]*kA; antisense) [compound 799855]	52%
800049 (antisense kA*kA*k[5mC]*dA*dA*dA*d[5mC]*d[5mC]*dT*dG*dG*d[5mC]*d[5mC]*kT*kG*kG) [compound 800049]	7%
798835 (k[5mC]*kG*kA*dG*dG*d[5mC]*dA*dA*dA*dA*dG*d[5mC]*d[5mC]*kA*kT*kT; antisense) [compound 798835]	22%

same assay, conditions: Hep3B cells, electroporation with 10,000 nM antisense oligonucleotide, approximately 24 hours, RTS5062, percent inhibition of SMAD7 mRNA relative to untreated control cells

Substance	% Inhibition
799622 (kT*kT*k[5mC]*dT*dA*dA*dA*dA*dA*dT*dG*dT*d[5mC]*k[5mC]*k[5mC]*kA; antisense) [compound 799622]	45%
799313 (antisense kA*kT*k[5mC]*d[5mC]*dA*dT*d[5mC]*dT*dT*dT*dA*dA*dG*k[5mC]*kA*k[5mC]) [compound 799313]	0%
799845 (antisense kG*kA*kA*dG*dT*dA*d[5mC]*d[5mC]*dT*dA*dG*dA*dG*kG*kA*kG) [compound 799845]	31%
799296 (antisense kG*k[5mC]*kT*dG*dA*d[5mC]*dT*d[5mC]*dG*d[5mC]*dG*dG*d[5mC]*k[5mC]*kT*kT) [compound 799296]	45%

same assay, conditions: Hep3B cells, electroporation with 10,000 nM antisense oligonucleotide, approximately 24 hours, SMAD7 mRNA by RT-PCR (RTS5062), relative to untreated control cells

Substance	% Inhibition
830091 (kA*kA*kT*dA*d[5mC]*dA*d[5mC]*dA*dA*dG*dA*d[5mC]*d[5mC]*k[5mC]*kT*kG; antisense) [compound 830091]	37%
830045 (k[5mC]*k[5mC]*kG*dA*dT*dT*dG*dG*d[5mC]*dA*dG*dG*dT*kT*kA*kA; antisense) [compound 830045]	47%
830143 (antisense kG*kG*kT*dG*dT*dG*d[5mC]*dA*d[5mC]*d[5mC]*dA*dG*dG*kT*kG*kA) [compound 830143]	62%
799947 (antisense kT*k[5mC]*kT*dA*dA*dA*dG*d[5mC]*d[5mC]*dA*d[5mC]*d[5mC]*dA*kA*kG*k[5mC]) [compound 799947]	28%
772590 (kT*kG*kT*dG*dA*d[5mC]*d[5mC]*dG*dA*dT*d[5mC]*d[5mC]*d[5mC]*k[5mC]*kA*kG; antisense) [compound 772590]	37%
799960 (antisense kA*kA*kA*d[5mC]*dA*dG*dG*dG*dT*dT*d[5mC]*d[5mC]*d[5mC]*k[5mC]*k[5mC]*kA) [compound 799960]	8%
830166 (antisense k[5mC]*kA*k[5mC]*dA*dG*d[5mC]*dT*dG*dT*dA*d[5mC]*d[5mC]*dA*kG*kG*kG) [compound 830166]	48%
800107 (antisense kA*kA*kT*d[5mC]*dT*dA*dG*dA*dA*dA*dA*d[5mC]*dA*k[5mC]*kA*kT) [compound 800107]	0%
799963 (antisense kA*kG*k[5mC]*d[5mC]*dA*dT*dG*dG*d[5mC]*dA*dG*dA*dA*k[5mC]*k[5mC]*k[5mC]) [compound 799963]	6%
800087 (antisense kT*kA*kA*dT*dA*dG*dG*dA*dA*dA*dA*d[5mC]*dA*kG*kT*k[5mC]) [compound 800087]	0%
798863 (kG*kG*kG*dT*dT*dG*dT*d[5mC]*d[5mC]*dA*dG*dT*dG*kT*kG*kG; antisense) [compound 798863]	41%
800082 (antisense kG*k[5mC]*kA*dG*dA*d[5mC]*d[5mC]*dG*dG*dT*dA*dT*dT*kA*kA*k[5mC]) [compound 800082]	12%
799493 (antisense kA*kT*kA*d[5mC]*dA*d[5mC]*dT*dT*dA*dA*dT*d[5mC]*dA*kA*kA*k[5mC]) [compound 799493]	1%
799472 (antisense kA*kG*k[5mC]*d[5mC]*dA*dT*dA*d[5mC]*d[5mC]*dT*d[5mC]*d[5mC]*dA*kT*k[5mC]*kT) [compound 799472]	31%
830046 (kT*k[5mC]*k[5mC]*dG*dA*dT*dT*dG*dG*d[5mC]*dA*dG*dG*kT*kT*kA; antisense) [compound 830046]	60%

same assay, conditions: Hep3B cells, electroporation with 10,000 nM antisense oligonucleotide, approximately 24 hours, primer probe set RTS5062, relative to untreated control cells

Substance	% inhibition of SMAD7 mRNA expression	% Inhibition
790462 (kG*k[5mC]*kG*d[5mC]*dA*dG*dG*d[5mC]*dG*dA*d[5mC]*dA*dG*k[5mC]*kA*kG; antisense) [compound 790462]	43%	
798983 (antisense k[5mC]*k[5mC]*k[5mC]*d[5mC]*dT*dT*d[5mC]*dA*dT*dA*d[5mC]*dA*d[5mC]*kT*kG*kT) [compound 798983]	0%	
799205 (antisense kT*kA*kA*dA*dT*d[5mC]*dT*d[5mC]*dA*dG*dG*dT*dT*kT*kT*kT) [compound 799205]	54%	
799047 (antisense kT*kT*kG*dA*dT*dG*dA*dG*dG*dG*dA*dG*dA*kG*kG*kA) [compound 799047]	63%	
799181 (antisense kG*kT*kT*dA*dG*dA*dA*dA*dA*dA*dT*dA*dG*k[5mC]*kT*kT) [compound 799181]		37%
799066 (antisense kT*kG*kA*dA*dA*dA*dT*dA*dA*dT*dT*dG*dG*kT*kT*k[5mC]) [compound 799066]	0%	
799341 (kG*kA*kA*dG*dG*dA*dA*dA*dA*dA*dG*dT*dA*kG*kG*kG; antisense) [compound 799341]	8%	
799461 (antisense k[5mC]*kT*kG*d[5mC]*dG*dA*dG*dA*dG*dA*dA*dA*dA*kA*kG*kA) [compound 799461]	62%	
799035 (k[5mC]*kG*k[5mC]*d[5mC]*dA*dG*d[5mC]*dT*dT*dG*d[5mC]*d[5mC]*d[5mC]*kA*kG*kG; antisense) [compound 799035]		0%
798961 (antisense kA*kA*kA*dA*d[5mC]*d[5mC]*d[5mC]*d[5mC]*d[5mC]*dA*dA*d[5mC]*dA*kA*kT*kT) [compound 798961]		0%
798992 (antisense kA*k[5mC]*kT*d[5mC]*d[5mC]*dT*dG*dA*d[5mC]*dA*dA*dG*dT*kG*kA*kA) [compound 798992]	29%	
798777 (kG*k[5mC]*kA*dA*d[5mC]*dA*d[5mC]*dA*dG*d[5mC]*d[5mC]*dT*d[5mC]*kT*kT*kG; antisense) [compound 798777]	20%	
798760 (kG*kA*kG*dG*dG*d[5mC]*dG*dG*d[5mC]*dT*dG*d[5mC]*dG*k[5mC]*kA*kG; antisense) [compound 798760]	47%	

same assay, conditions: Hep3B cells, electroporation, 10,000 nM antisense oligonucleotide, approximately 24 hours, RTS5062, relative to untreated control cells

Substance	% inhibition of SMAD7 mRNA expression
799562 (kG*kA*kA*dG*dA*dG*dG*dA*dG*dA*dG*d[5mC]*d[5mC]*kG*kG*kG; antisense) [compound 799562]	39%
799760 (antisense kT*kT*k[5mC]*dT*dA*dG*dG*dT*dG*dA*dA*d[5mC]*d[5mC]*kA*kT*kA) [compound 799760]	58%
799754 (antisense kG*kG*k[5mC]*dT*dA*dA*dG*dT*dG*d[5mC]*d[5mC]*dA*dG*kG*kT*kG) [compound 799754]	0%
799618 (kA*kA*k[5mC]*dA*dA*dA*dG*d[5mC]*dT*dG*d[5mC]*dA*dA*kT*kG*k[5mC]; antisense) [compound 799618]	0%
799641 (k[5mC]*kA*kT*d[5mC]*dA*dG*dA*d[5mC]*d[5mC]*dT*d[5mC]*dT*d[5mC]*k[5mC]*k[5mC]*kA; antisense) [compound 799641]	33%
799614 (kG*kG*k[5mC]*d[5mC]*dT*dT*dT*dG*dA*dG*d[5mC]*dA*d[5mC]*kA*k[5mC]*k[5mC]; antisense) [compound 799614]	37%
799715 (antisense k[5mC]*k[5mC]*kT*d[5mC]*dA*dG*dG*dG*d[5mC]*dT*dG*d[5mC]*d[5mC]*kA*k[5mC]*k[5mC]) [compound 799715]	32%

same assay, conditions: SMAD7 mRNA, Hep3B cells, 10,000 nM antisense oligonucleotide, electroporation, approximately 24 hours, primer probe set RTS5062, relative to untreated control cells

Substance	% Inhibition
800861 (antisense k[5mC]*k[5mC]*kA*dG*dT*dT*dG*dG*dT*dT*dT*dG*dA*kG*kA*kA) [compound 800861]	32%
790516 (kG*kT*kA*dA*d[5mC]*dT*dG*d[5mC]*dT*dG*d[5mC]*dG*dG*kT*kT*kG; antisense) [compound 790516]	45%
772735 (kA*kA*k[5mC]*dT*dG*dT*dT*dT*dG*dT*d[5mC]*dT*dT*kA*kG*k[5mC]; antisense) [compound 772735]	52%

same assay, conditions: SMAD7 mRNA, Hep3B cells, electroporation with 10,000 nM antisense oligonucleotide, approximately 24 hours, primer probe set RTS5062, relative to untreated control cells

Substance	% Inhibition
829939 (kA*k[5mC]*kA*dT*dT*d[5mC]*dA*dG*d[5mC]*dT*dA*dG*dG*kT*kG*kA; antisense) [compound 829939]	34%
829797 (kG*kG*kT*dT*dG*dA*dT*d[5mC]*dT*dT*d[5mC]*d[5mC]*d[5mC]*kG*kT*kA; antisense) [compound 829797]	54%
829801 (kA*kG*kT*d[5mC]*dG*dG*d[5mC]*dT*dA*dA*dG*dG*dT*kG*kA*kT; antisense) [compound 829801]	8%
